{
  "source": "patent US5556744A",
  "about": "“Methods and compositions for diagnosing and treating certain HIV infected patients” (The Trustees of the University of Pennsylvania, priority 1994, dated 1996)",
  "key": {"[1]": {"system": "maternal HIV+ sera (antibodies)", "assay": "RIA / ELISA binding of maternal HIV+ sera to gp120 and gp41 peptides (Example 3)", "parameters": "species or system human", "procedure,_shortened": "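Maternal sera, diluted 1:50 and 1:500, were bound overnight at 4°C to peptides immobilized at 10 μg/ml (pH 9.6 carbonate) and blocked with 1% BSA. Read-out was ¹²⁵I-labelled anti-human IgG counts or HRP-TMB OD450. Signal with peptide minus without was expressed relative to seronegative serum.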"}, "[2]": {"system": "HIV-1 infected cells (MN isolate)", "assay": "Anti-syncytial assay (inhibition of HIV-1 MN syncytium formation, SupT1 target cells)", "format": "cell-based", "details": "sera which bound the peptide", "from_the_text": "The H9 cell line (a cutaneous T lymphoma line) infected by HIV-IIIB [ATCC CRL 8543] was used in the neutralization assay. The H9 cell line infected by HIV-MN was used in the anti-syncytial assays. SupT1 and Hut78 cells were used as the target cell lines for the anti-syncytial and neutralization assays. All cell lines were obtained from the National Institutes of Health AIDS Repository (Bethesda, Md.).\nTo analyze the effect of the maternal serum samples on HIV-1 fusion, SupT1 cells were used as target cells in an anti-syncytial assay. Dilutions of the different maternal serum samples were made in 96 well plates in RPMI 1640 media containing 10% fetal calf serum at final dilutions of 1:4, 1:8, 1:16, 1:32, 1:64, 1:128, 1:256 or 1:512. HIV-1 infected cells (MN isolate) were then plated in the wells at a density of approximately 10^4 cells per well. SupT1 target cells were then added at 5×10^5 /well and the number of syncytia are determined after 3 days of incubation. Inhibition of syncytium formation by a serum sample was considered significant if the dilution which yielded a 50% reduction in the number of syncytia when compared to control was greater than 1:32. The average number of syncytia in the control (normal human serum) wells at the above dilutions were: 45.5, 48.5, 44, 48, 48.5, 41.5, 42 and 45.5 respectively."}},
  "data": [
    {"sequence": "TLPCASDAKAYDTEV [Peptide 93]", "values": [
      {"measurement": "Number of maternal sera binding to peptide", "setting": "[1]; 20 maternal sera", "result": "six"},
      {"measurement": "Binding of maternal sera to peptide (in words)", "setting": "[1]; Example 3", "result": "Several maternal serum samples had reactivity"},
      {"measurement": "Binding of maternal HIV+ serum to peptide (sera/NHS ratio)", "setting": "[1]; Serum No. 1, Non-Transmission Group", "result": "++ (which value is greater than 3)"},
      {"measurement": "Binding of maternal HIV+ serum to peptide (sera/NHS ratio)", "setting": "[1]; Serum No. 2, Non-Transmission Group", "result": "- (specific OD450 or cpm of sera sample binding to peptide divided by the specific OD450 or cpm of NHS sample binding to peptide, which value is less than 2)"},
      {"measurement": "Binding of maternal HIV+ serum to peptide (sera/NHS ratio)", "setting": "[1]; Serum No. 3, Non-Transmission Group", "result": "- (specific OD450 or cpm of sera sample binding to peptide divided by the specific OD450 or cpm of NHS sample binding to peptide, which value is less than 2)"},
      {"measurement": "Binding of maternal HIV+ serum to peptide (sera/NHS ratio)", "setting": "[1]; Serum No. 4, Transmission Group", "result": "++ (which value is greater than 3)"},
      {"measurement": "Binding of maternal HIV+ serum to peptide (sera/NHS ratio)", "setting": "[1]; Serum No. 5, Transmission Group", "result": "- (specific OD450 or cpm of sera sample binding to peptide divided by the specific OD450 or cpm of NHS sample binding to peptide, which value is less than 2)"},
      {"measurement": "Binding of maternal HIV+ serum to peptide (sera/NHS ratio)", "setting": "[1]; Serum No. 6, Non-Transmission Group", "result": "+ (which value is between 2 to 3)"},
      {"measurement": "Binding of maternal HIV+ serum to peptide (sera/NHS ratio)", "setting": "[1]; Serum No. 7, Non-Transmission Group", "result": "++ (which value is greater than 3)"},
      {"measurement": "Binding of maternal HIV+ serum to peptide (sera/NHS ratio)", "setting": "[1]; Serum No. 8, Non-Transmission Group", "result": "+ (which value is between 2 to 3)"},
      {"measurement": "Binding of maternal HIV+ serum to peptide (sera/NHS ratio)", "setting": "[1]; Serum No. 9, Non-Transmission Group", "result": "- (specific OD450 or cpm of sera sample binding to peptide divided by the specific OD450 or cpm of NHS sample binding to peptide, which value is less than 2)"},
      {"measurement": "Binding of maternal HIV+ serum to peptide (sera/NHS ratio)", "setting": "[1]; Serum No. 10, Transmission Group", "result": "- (specific OD450 or cpm of sera sample binding to peptide divided by the specific OD450 or cpm of NHS sample binding to peptide, which value is less than 2)"},
      {"measurement": "Binding of maternal HIV+ serum to peptide (sera/NHS ratio)", "setting": "[1]; Serum No. 11, Non-Transmission Group", "result": "- (specific OD450 or cpm of sera sample binding to peptide divided by the specific OD450 or cpm of NHS sample binding to peptide, which value is less than 2)"},
      {"measurement": "Binding of maternal HIV+ serum to peptide (sera/NHS ratio)", "setting": "[1]; Serum No. 12, Non-Transmission Group", "result": "- (specific OD450 or cpm of sera sample binding to peptide divided by the specific OD450 or cpm of NHS sample binding to peptide, which value is less than 2)"},
      {"measurement": "Binding of maternal HIV+ serum to peptide (sera/NHS ratio)", "setting": "[1]; Serum No. 13, Transmission Group", "result": "- (specific OD450 or cpm of sera sample binding to peptide divided by the specific OD450 or cpm of NHS sample binding to peptide, which value is less than 2)"},
      {"measurement": "Binding of maternal HIV+ serum to peptide (sera/NHS ratio)", "setting": "[1]; Serum No. 14, Transmission Group", "result": "- (specific OD450 or cpm of sera sample binding to peptide divided by the specific OD450 or cpm of NHS sample binding to peptide, which value is less than 2)"},
      {"measurement": "Binding of maternal HIV+ serum to peptide (sera/NHS ratio)", "setting": "[1]; Serum No. 15, Transmission Group", "result": "- (specific OD450 or cpm of sera sample binding to peptide divided by the specific OD450 or cpm of NHS sample binding to peptide, which value is less than 2)"},
      {"measurement": "Binding of maternal HIV+ serum to peptide (sera/NHS ratio)", "setting": "[1]; Serum No. 16, Non-Transmission Group", "result": "+ (which value is between 2 to 3)"},
      {"measurement": "Binding of maternal HIV+ serum to peptide (sera/NHS ratio)", "setting": "[1]; Serum No. 17, Non-Transmission Group", "result": "- (specific OD450 or cpm of sera sample binding to peptide divided by the specific OD450 or cpm of NHS sample binding to peptide, which value is less than 2)"},
      {"measurement": "Binding of maternal HIV+ serum to peptide (sera/NHS ratio)", "setting": "[1]; Serum No. 18, Non-Transmission Group", "result": "- (specific OD450 or cpm of sera sample binding to peptide divided by the specific OD450 or cpm of NHS sample binding to peptide, which value is less than 2)"},
      {"measurement": "Binding of maternal HIV+ serum to peptide (sera/NHS ratio)", "setting": "[1]; Serum No. 19, Transmission Group", "result": "- (specific OD450 or cpm of sera sample binding to peptide divided by the specific OD450 or cpm of NHS sample binding to peptide, which value is less than 2)"},
      {"measurement": "Binding of maternal HIV+ serum to peptide (sera/NHS ratio)", "setting": "[1]; Serum No. 20, Non-Transmission Group", "result": "- (specific OD450 or cpm of sera sample binding to peptide divided by the specific OD450 or cpm of NHS sample binding to peptide, which value is less than 2)"},
      {"measurement": "Number of binding maternal sera from the non-transmission group", "setting": "[1]; non-transmission group (13 sera)", "result": 5},
      {"measurement": "Percent of binding maternal sera from the non-transmission group", "setting": "[1]; of the sera which bound", "result": 83, "unit": "%"},
      {"measurement": "Percent of binding maternal sera from the transmission group", "setting": "[1]; of the sera which bound", "result": 17, "unit": "%"},
      {"measurement": "Number of binding maternal sera from the transmission group", "setting": "[1]; vertical transmission group (7 sera)", "result": 1},
      {"measurement": "Number of samples which bound the peptide and possessed anti-syncytial activity", "setting": "[2]", "result": 6},
      {"measurement": "Percent of samples which bound the peptide and possessed anti-syncytial activity", "setting": "[2]", "result": 100, "unit": "%"}
    ]}
  ]
}
